Reference: the supplement of paper PMC10307832

Columns and labels:
Assay in all cases: relative viability (nuclei count vs DMSO), 5 days (fraction); higher = more cells survive
[1] = compound: CN(C)CC1=CC(=CC=C1)N=C(C2=CC=CC=C2)C3=C(NC4=C3C=CC(=C4)C(=O)N(C)C)O + COc1cccc2cc(-c3nc([C@H]4CC[C@H](C(=O)O)CC4)n4ncnc(N)c34)[nH]c12 [OSI-027] (partner 0.5 µM)
Summary of the method: (§1)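 Dosing by pin tool came one day after lung cancer cell lines were seeded in 1536-well plates, using either one drug or a fixed anchor-drug dose plus five library-drug doses (not always all listed) in √10 steps. After 5 days, nuclei were counted on 4× images. Relative viability is treated-well nuclei count divided by vehicle-well nuclei count, and values are medians of duplicate plates.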

[2] = compound: CN(C)CC1=CC(=CC=C1)N=C(C2=CC=CC=C2)C3=C(NC4=C3C=CC(=C4)C(=O)N(C)C)O + CS(=O)(=O)CCNCc1ccc(-c2ccc3ncnc(Nc4ccc(OCc5cccc(F)c5)c(Cl)c4)c3c2)o1 [Lapatinib] (partner 2 µM)
Summary of the method: as §1

[3] = compound: CN(C)CC1=CC(=CC=C1)N=C(C2=CC=CC=C2)C3=C(NC4=C3C=CC(=C4)C(=O)N(C)C)O + CCNC(=O)c1noc(-c2cc(C(C)C)c(O)cc2O)c1-c1ccc(CN2CCOCC2)cc1 [Luminespib] (partner 0.01 µM)
Summary of the method: as §1

[4] = compound: CN(C)CC1=CC(=CC=C1)N=C(C2=CC=CC=C2)C3=C(NC4=C3C=CC(=C4)C(=O)N(C)C)O + C[C@]1(O)C[C@@H](c2nc(-c3ccc4ccc(-c5ccccc5)nc4c3)c3c(N)nccn32)C1 [Linsitinib] (partner 1 µM)
Summary of the method: as §1

Row | Cell Line | relative viability ([1]; first compound 0.08 µM) | relative viability ([1]; first compound 0.253 µM) | relative viability ([1]; first compound 0.8 µM) | relative viability ([1]; first compound 2.53 µM) | relative viability ([1]; first compound 8 µM) | relative viability ([2]; first compound 0.08 µM) | relative viability ([2]; first compound 0.253 µM) | relative viability ([2]; first compound 0.8 µM) | relative viability ([2]; first compound 2.53 µM) | relative viability ([2]; first compound 8 µM) | relative viability ([3]; first compound 0.08 µM) | relative viability ([3]; first compound 0.253 µM) | relative viability ([3]; first compound 0.8 µM) | relative viability ([3]; first compound 2.53 µM) | relative viability ([3]; first compound 8 µM) | relative viability ([4]; first compound 0.08 µM) | relative viability ([4]; first compound 0.253 µM) | relative viability ([4]; first compound 0.8 µM) | relative viability ([4]; first compound 2.53 µM) | relative viability ([4]; first compound 8 µM)
1 | NCI-H1355 | 0.463 | 0.457 | 0.393 | 0.491 | 0.329 | 1.08 | 1.02 | 0.955 | 0.948 | 0.885 | 0.687 | 0.713 | 0.735 | 0.764 | 0.66 | 0.849 | 0.885 | 0.656 | 0.774 | 0.762
2 | NCI-H1651 | 0.846 | 0.874 | 0.731 | 0.645 | 0.783 | 0.76 | 0.762 | 0.77 | 0.599 | 0.796 | 0.892 | 0.782 | 0.894 | 0.639 | 0.87 | 0.88 | 1.2 | 0.923 | 0.789 | 0.801
3 | RERF-LC-KJ | 0.575 | 0.613 | 0.537 | 0.583 | 0.542 | 0.917 | 0.882 | 0.834 | 0.793 | 0.859 | 1.34 | 1.4 | 1.25 | 1.13 | 1.23 | 0.912 | 0.93 | 0.81 | 0.948 | 0.87
4 | LC-2-ad | 0.935 | 0.73 | 0.867 | 0.732 | 0.614 | 1.03 | 0.893 | 0.879 | 0.876 | 0.981 | 1.01 | 0.894 | 1.06 | 0.863 | 0.973 | 0.844 | 0.745 | 0.884 | 0.808 | 0.593
5 | NCI-H358 | 0.824 | 0.706 | 0.633 | 0.671 | 0.549 | 0.46 | 0.347 | 0.468 | 0.425 | 0.413 | 0.304 | 0.277 | 0.331 | 0.414 | 0.276 | 0.779 | 0.715 | 0.673 | 0.621 | 0.464
6 | SK-MES-1 | 0.618 | 0.689 | 0.635 | 0.534 | 0.533 | 0.53 | 0.531 | 0.49 | 0.426 | 0.443 | 0.544 | 0.749 | 0.678 | 0.834 | 0.521 | 1.1 | 1 | 1.07 | 0.918 | 0.988
7 | NCI-H1734 | 0.599 | 0.6 | 0.56 | 0.561 | 0.577 | 1 | 1.08 | 1.02 | 1.02 | 0.881 | 0.206 | 0.168 | 0.164 | 0.25 | 0.174 | 0.763 | 0.911 | 0.957 | 0.9 | 0.762
8 | NCI-H1563 | 0.723 | 0.811 | 0.775 | 0.766 | 0.708 | 1.04 | 0.894 | 0.815 | 0.683 | 0.817 | 0.49 | 0.467 | 0.538 | 0.576 | 0.495 | 1.19 | 1.28 | 1.15 | 1.08 | 1.14
9 | HOP-62 | 0.852 | 0.847 | 0.827 | 0.769 | 0.799 | 1.03 | 1.11 | 1.14 | 1.05 | 0.946 | 0.818 | 0.933 | 0.977 | 0.929 | 1.05 | 1.11 | 1.08 | 0.99 | 1.1 | 1.16
10 | HCC-15 | 0.705 | 0.692 | 0.77 | 0.6 | 0.719 | 0.891 | 0.821 | 0.947 | 0.776 | 0.924 | 0.304 | 0.205 | 0.181 | 0.278 | 0.279 | 0.869 | 0.849 | 0.976 | 0.974 | 0.805
11 | HCC-44 | 0.67 | 0.584 | 0.6 | 0.392 | 0.533 | 0.953 | 1.03 | 0.986 | 0.937 | 1.03 | 1.15 | 0.761 | 1.03 | 0.917 | 0.991 | 0.67 | 0.683 | 0.641 | 0.613 | 0.664
12 | NCI-H460 | 0.615 | 0.727 | 0.824 | 0.65 | 0.335 | 1.1 | 0.967 | 1.04 | 0.776 | 0.741 | 0.0333 | 0.0284 | 0.0254 | 0.0282 | 0.0318 | 0.841 | 0.758 | 0.893 | 0.471 | 0.54
13 | NCI-H3122 | 1.01 | 0.962 | 1.41 | 1.06 | 0.933 | 0.96 | 0.971 | 1.01 | 0.983 | 0.997 | 0.0882 | 0.0788 | 0.075 | 0.142 | 0.0907 | 1.08 | 1.05 | 1.08 | 0.972 | 1.05
14 | NCI-H2009 | 0.507 | 0.693 | 0.764 | 0.616 | 0.467 | 1.07 | 0.98 | 1.03 | 0.813 | 0.886 | 1.04 | 0.999 | 1.11 | 0.96 | 1.05 | 1.19 | 1.21 | 1.21 | 1.12 | 1.19
15 | ABC-1 | 0.433 | 0.504 | 0.442 | 0.568 | 0.447 | 1.19 | 1.13 | 1.02 | 0.827 | 0.938 | 0.609 | 0.618 | 0.422 | 0.445 | 0.552 | 0.773 | 0.965 | 0.709 | 0.728 | 0.73
16 | A-427 | 0.472 | 0.429 | 0.497 | 0.509 | 0.36 | 1.03 | 1.06 | 1.09 | 1.03 | 1.1 | 0.995 | 0.929 | 1 | 0.667 | 0.756 | 1.08 | 1.1 | 1.13 | 1.01 | 1.06
17 | LU99A | 0.245 | 0.346 | 0.341 | 0.297 | 0.286 | 1.06 | 1 | 1.01 | 0.922 | 0.756 | 0.238 | 0.246 | 0.285 | 0.258 | 0.234 | 0.546 | 0.545 | 0.496 | 0.534 | 0.485
18 | NCI-H661 | 0.718 | 0.679 | 0.665 | 0.718 | 0.567 | 0.502 | 0.433 | 0.559 | 0.472 | 0.291 | 0.922 | 0.904 | 0.964 | 0.865 | 0.811 | 0.623 | 0.549 | 0.529 | 0.574 | 0.455
19 | CAL-12T | 0.736 | 0.746 | 0.686 | 0.849 | 0.527 |  | 0.746 | 0.878 |  | 0.755 | 0.27 | 0.451 | 0.877 | 0.542 | 0.376 | 0.779 | 0.838 | 0.799 | 0.771 | 0.841
20 | NCI-H1975 | 0.747 | 0.0592 | 0.675 | 0.747 | 0.585 | 0.948 | 0.81 | 0.835 | 0.742 | 0.951 | 0.22 | 0.197 | 0.0911 | 0.324 | 0.161 | 0.935 | 0.999 | 0.824 | 0.871 | 0.855
21 | NCI-H2087 | 0.552 | 0.668 | 0.569 | 0.542 | 0.367 | 1.08 | 0.835 | 1.1 | 0.942 | 1.05 | 0.164 | 0.197 | 0.232 | 0.167 | 0.172 | 0.981 | 1.01 | 1.06 | 0.828 | 0.966
22 | COR-L23 | 0.722 | 0.788 | 0.818 | 0.741 | 0.732 | 1.05 | 0.895 | 0.922 | 0.92 | 0.975 | 0.752 | 0.787 | 0.791 | 0.523 | 0.665 | 1.06 | 0.889 | 1.07 | 0.878 | 0.759
23 | NCI-H1792 | 0.77 | 0.729 | 0.709 | 0.721 | 0.58 | 0.866 | 0.896 | 0.873 | 0.818 | 0.945 | 0.501 | 0.453 | 0.386 | 0.452 | 0.385 | 0.548 | 0.493 | 0.5 | 0.372 | 0.424
24 | COR-L 105 | 0.634 | 0.641 | 0.477 | 0.687 | 0.609 | 0.384 | 0.406 | 0.318 | 0.357 | 0.349 | 0.865 | 0.688 | 0.567 | 1.23 | 0.622 | 0.888 | 0.838 | 1.1 | 1.02 | 0.805
25 | HCC-827 | 0.795 | 0.712 | 0.749 | 0.686 | 0.699 | 0.218 | 0.191 | 0.197 | 0.191 | 0.191 | 0.442 | 0.651 | 0.457 | 0.723 | 0.489 | 0.984 | 0.944 | 1.03 | 0.925 | 0.937
26 | NCI-H2126 | 0.612 | 0.745 | 0.812 | 0.8 | 0.676 | 0.76 | 0.762 | 0.73 | 0.765 | 0.762 | 0.993 | 0.858 | 0.937 | 0.883 | 0.886 | 0.701 | 0.668 | 0.679 | 0.759 | 0.686
